Data as given in patent publication US8404726B2, “Activating agent for peroxisome proliferator activated receptor δ” (Nippon Chemiphar Co. Ltd., priority 2006, dated 2013).

Experiments:
hPPARγ (LBD) = target: T1, hPPARγ (LBD) (Homo sapiens, UniProt P37231); assay: PPAR activating function, GAL4-hPPARγ (LBD) luciferase reporter transfected into CV-1 cells; type: cell-based; settings: control Rosiglitazone 10^−5 M = 100%
T1 construct: A receptor expression plasmid (pSG5-GAL4-hPPARα or γ or δ (LBD)); GAL4 (fusion partner); expressed in transfected cells; host or cells: CV-1 cells (ATCC)
T1 sequence (P37231 238-503 limits assumed): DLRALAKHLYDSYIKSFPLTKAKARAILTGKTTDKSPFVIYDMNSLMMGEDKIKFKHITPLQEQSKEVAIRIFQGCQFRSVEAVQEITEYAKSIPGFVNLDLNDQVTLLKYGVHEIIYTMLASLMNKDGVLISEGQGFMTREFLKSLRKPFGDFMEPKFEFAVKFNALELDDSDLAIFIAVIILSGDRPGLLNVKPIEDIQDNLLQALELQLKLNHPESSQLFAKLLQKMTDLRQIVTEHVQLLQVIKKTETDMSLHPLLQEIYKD
Experimental: (§1) The PPAR activating effect of the compound of the invention was determined by the following method:
(§2) A receptor expression plasmid (pSG5-GAL4-hPPARα or γ or δ (LBD)), a luciferase expression plasmid (MH100×4-TK-Luc), and a β-galactosidase expression plasmid (pCMX-β-GAL) are transfected into CV-1 cells (ATCC) (Kliewer, S. A. et al., (1992) Nature, 358: 771-774). After the gene transfer is conducted by utilizing a lipofection reagent (Lipofectamine 2000, Invitrogen), it is incubated for about 40 hours in the presence of a compound to be tested. The luciferase activity and β-GAL activity are measured on the soluble cells.
(§3) The luciferase activity is calibrated by the β-GAL activity. A relative ligand activity is calculated under the condition that the luciferase activity of the cells treated by GW-590735 for PPARα, Rosiglitazone for PPARγ, or GW-501516 for PPARδ is set to 100% to determine EC50 (see the below-mentioned Examples 14 and 15).
(§4) PPAR activating functions of test compounds (compounds of Examples) were measured in the manner described below.
(§5) A receptor expression plasmid (pSG5-GAL4-hPPARα or γ or δ (LBD)), a luciferase expression plasmid (pUC8-MH100×4-TK-Luc), and a β-galactosidase expression plasmid (pCMX-β-GAL) were transfected into CV-1 cells (ATCC) (Kliewer, S. A. et al., (1992) Nature, 358: 771-774). After the gene transfer was conducted by utilizing a lipofection reagent (Lipofectamine 2000, Invitrogen), it was incubated for about 40 hours in the presence of a compound to be tested. The luciferase activity and β-GAL activity were measured on the soluble cells.
(§6) The luciferase activity was calibrated by the β-GAL activity. A relative ligand activity was calculated under the condition that the luciferase activity of the cells treated by GW-590735 for PPARα, Rosiglitazone for […], or GW-501516 for PPARδ was set to 100% to determine EC50.
(§7) The tests were conducted in the same manner to Example 14 (1).

hPPARα (LBD) = target: T2, hPPARα (LBD) (Homo sapiens, UniProt Q07869); assay: PPAR activating function, GAL4-hPPARα (LBD) luciferase reporter transfected into CV-1 cells; type: cell-based; settings: control GW-590735 10^−6 M = 100%
T2 construct: A receptor expression plasmid (pSG5-GAL4-hPPARα or γ or δ (LBD)); GAL4 (fusion partner); expressed in transfected cells; host or cells: CV-1 cells (ATCC)
T2 sequence (Q07869 239-466 limits assumed): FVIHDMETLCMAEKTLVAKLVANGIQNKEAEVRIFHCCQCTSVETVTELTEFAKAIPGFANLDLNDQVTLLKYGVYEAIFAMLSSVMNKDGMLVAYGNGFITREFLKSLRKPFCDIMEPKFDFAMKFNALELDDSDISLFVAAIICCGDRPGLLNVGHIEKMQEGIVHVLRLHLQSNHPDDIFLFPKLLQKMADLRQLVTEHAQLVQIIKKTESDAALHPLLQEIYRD
Experimental: as §1, §2, §3, §4, §5, §6, §7

hPPARδ (LBD) = target: T3, hPPARδ (LBD) (Homo sapiens, UniProt Q03181); assay: PPAR activating function, GAL4-hPPARδ (LBD) luciferase reporter transfected into CV-1 cells; type: cell-based
T3 construct: A receptor expression plasmid (pSG5-GAL4-hPPARα or γ or δ (LBD)); GAL4 (fusion partner); expressed in transfected cells; host or cells: CV-1 cells (ATCC)
T3 sequence (Q03181 211-439 limits assumed): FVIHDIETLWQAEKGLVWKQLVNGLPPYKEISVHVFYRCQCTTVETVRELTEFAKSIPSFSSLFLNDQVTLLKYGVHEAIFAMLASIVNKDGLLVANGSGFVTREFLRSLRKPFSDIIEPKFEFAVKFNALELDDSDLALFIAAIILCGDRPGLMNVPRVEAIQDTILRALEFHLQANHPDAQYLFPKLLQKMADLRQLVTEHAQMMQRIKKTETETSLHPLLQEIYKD
Experimental: as §1, §2, §3, §4, §5, §6, §7

[1] = 10^−6 M of the test compound (Examples 3 and 8)
[2] = 10^−7M of the test compound, control GW-501516 10^−7 M = 100%, CV-1 cells

SMILES: CCCCCCc1nc(-c2ccc(C)cc2)sc1CCC(=O)c1ccc(CCC(=O)O)c(C)c1 [Example 1, 3-[4-[3-[4-Hexyl-2-(4-methylphenyl)thiazol-5-yl]propionyl]-2-methylphenyl]propionic acid]
- PPAR activity PPARγ (relative value, control = 100%) (hPPARγ (LBD); 10^−7 M of the test compound): Inactive
- PPAR activity PPARα (relative value, control = 100%) (hPPARα (LBD); 10^−7 M of the test compound): Inactive

SMILES: Cc1cc(C(=O)CCc2sc(-c3ccc(C(F)(F)F)cc3)cc2C(C)C)ccc1CCC(=O)O [Example 2, 3-[4-[3-[3-Isopropyl-5-[4-(trifluoromethyl)phenyl]thiophen-2-yl]propionyl]-2-methylphenyl]propionic acid]
- PPAR activity PPARγ (relative value, control = 100%) (hPPARγ (LBD); 10^−7 M of the test compound): Inactive
- PPAR activity PPARα (relative value, control = 100%) (hPPARα (LBD); 10^−7 M of the test compound): Inactive

SMILES: Cc1cc(C(=O)CCc2nc(-c3ccccc3)oc2C(C)C)ccc1CCC(=O)O [Example 3, 3-[4-[3-(5-Isopropyl-2-phenyl-4-oxazolyl)propionyl]-2-methylphenyl]propionic acid]
- PPAR activity PPARγ (relative value, control = 100%) (hPPARγ (LBD); [1]): Inactive
- PPAR activity PPARα (relative value, control = 100%) (hPPARα (LBD); [1]): Inactive

SMILES: Cc1cc(C(=O)C=Cc2sc(-c3ccc(C(F)(F)F)cc3)nc2C(C)C)ccc1C=CC(=O)O [Example 4, 3-[4-[3-[4-Isopropyl-2-[4-(trifluoromethyl)phenyl]thiazol-5-yl-]propenoyl]-2-methylphenyl]acrylic acid]
- PPAR activity PPARγ (relative value, control = 100%) (hPPARγ (LBD); 10^−7 M of the test compound): Inactive
- PPAR activity PPARδ (relative value, control = 100%) (hPPARδ (LBD); [2]): 22%
- PPAR activity PPARα (relative value, control = 100%) (hPPARα (LBD); 10^−7 M of the test compound): Inactive

SMILES: Cc1cc(C(=O)CCc2sc(-c3ccc(C(F)(F)F)cc3)nc2C(C)C)ccc1CCC(=O)O [Example 5, 3-[4-[3-[4-Isopropyl-2-[4-(trifluoromethyl)phenyl]thiazol-5-yl]propionyl]-2-methylphenyl]propionic acid]
- PPAR activity PPARγ (relative value, control = 100%) (hPPARγ (LBD); 10^−7 M of the test compound): Inactive
- agonist function for PPARδ (in words) (hPPARδ (LBD); summary of Tables 38 and 39): particularly strong agonist function
- PPAR activity PPARα (relative value, control = 100%) (hPPARα (LBD); 10^−7 M of the test compound): Inactive

SMILES: C=C(CCc1sc(-c2ccc(C(F)(F)F)cc2)nc1C(C)C)c1ccc(CCC(=O)O)c(C)c1 [Example 6, 3-[4-[1-[2-[4-Isopropyl-2-[4-(trifluoromethyl)phenyl]thiazol-5-yl]ethyl]vinyl]-2-methylphenyl]propionic acid]
- PPAR activity PPARγ (relative value, control = 100%) (hPPARγ (LBD); 10^−7 M of the test compound): Inactive
- PPAR activity PPARα (relative value, control = 100%) (hPPARα (LBD); 10^−7 M of the test compound): Inactive

SMILES: CC(C)c1nc(-c2ccc(C(F)(F)F)cc2)sc1CCC(=O)c1ccc(N(C)CC(=O)O)cc1 [Example 7, N-[4-[3-[4-Isopropyl-2-[4-(trifluoromethyl)phenyl]thiazol-5-yl]propionyl]phenyl]-N-methylglycine]
- PPAR activity PPARγ (relative value, control = 100%) (hPPARγ (LBD); 10^−7 M of the test compound): Inactive
- PPAR activity PPARα (relative value, control = 100%) (hPPARα (LBD); 10^−7 M of the test compound): Inactive

SMILES: CC(C)c1nc(-c2ccc(C(F)(F)F)cc2)sc1CCC(=O)c1ccc(NCC(=O)O)cc1 [Example 8, N-[4-[3-[4-Isopropyl-2-[4-(trifluoromethyl)phenyl]thiazol-5-yl]propionyl]phenyl]glycine]
- PPAR activity PPARγ (relative value, control = 100%) (hPPARγ (LBD); [1]): Inactive
- PPAR activity PPARα (relative value, control = 100%) (hPPARα (LBD); [1]): Inactive

SMILES: CC(C)c1cc(-c2ccc(C(F)(F)F)cc2)sc1CCC(=O)c1ccc(N(C)CC(=O)O)cc1 [Example 9, N-[4-[3-[3-Isopropyl-5-[4-(trifluoromethyl)phenyl]thiophen-2-yl]propionyl]phenyl]-N-methylglycine]
- PPAR activity PPARγ (relative value, control = 100%) (hPPARγ (LBD); 10^−7 M of the test compound): Inactive
- PPAR activity PPARα (relative value, control = 100%) (hPPARα (LBD); 10^−7 M of the test compound): Inactive

SMILES: CC(C)c1oc(-c2ccc(Cl)cc2O)nc1CCC(=O)c1ccc(N(C)CC(=O)O)cc1 [Example 10, N-[4-[3-[2-(4-chloro-2-hydroxyphenyl)-5-isopropyl-4-oxazolyl]propionyl]phenyl]-N-methylglycine]
- PPAR activity PPARγ: relative value (control = 100%) (hPPARγ (LBD); 10^−7 M of the test compound): Inactive
- PPAR activity PPARδ: relative value (control = 100%) (hPPARδ (LBD); [2]): 69%
- PPAR activity PPARα: relative value (control = 100%) (hPPARα (LBD); 10^−7 M of the test compound): Inactive
- melting point: 166 to 168 °C

SMILES: CCc1cc(C(=O)CCc2sc(-c3ccc(C(F)(F)F)cc3)nc2C(C)C)ccc1CCC(=O)O [Example 11, 3-[4-[3-[4-Isopropyl-2-[4-(trifluoromethyl)phenyl]-5-thiazolyl]propionyl]-2-ethylphenyl]propionic acid]
- PPAR activity PPARγ: relative value (control = 100%) (hPPARγ (LBD); 10^−7 M of the test compound): Inactive
- PPAR activity PPARδ: relative value (control = 100%) (hPPARδ (LBD); [2]): 89%
- PPAR activity PPARα: relative value (control = 100%) (hPPARα (LBD); 10^−7 M of the test compound): Inactive

SMILES: Cc1cc(C(=O)CCc2nc(-c3ccc(Cl)cc3O)oc2C(C)C)ccc1CCC(=O)O [Example 12, 3-[4-[3-[2-(4-Chloro-2-hydroxyphenyl)-5-isopropyl-4-oxazolyl]propionyl]-2-methylphenyl]propionic acid]
- PPAR activity PPARγ: relative value (control = 100%) (hPPARγ (LBD); 10^−7 M of the test compound): Inactive
- PPAR activity PPARδ: relative value (control = 100%) (hPPARδ (LBD); [2]): 93%
- PPAR activity PPARα: relative value (control = 100%) (hPPARα (LBD); 10^−7 M of the test compound): Inactive
- melting point: 141 to 144 °C

SMILES: Cc1cc(C(=O)CCc2nc(-c3ccccc3O)oc2C(C)C)ccc1CCC(=O)O [Example 13, 3-[4-[3-[5-Isopropyl-2-(2-hydroxyphenyl)-4-oxazolyl]propionyl]-2-methylphenyl]propionic acid]
- PPAR activity PPARγ: relative value (control = 100%) (hPPARγ (LBD); 10^−6 M of the test compound): Inactive
- PPAR activity PPARδ: relative value (control = 100%) (hPPARδ (LBD); 10^−6 M of the test compound, control GW-501516 10^−7 M = 100%, CV-1 cells): 62%
- PPAR activity PPARα: relative value (control = 100%) (hPPARα (LBD); 10^−6 M of the test compound): Inactive
